Experimental data from US7078386B2, “Enhancing agent for nerve growth factor production comprising a compound having a coumarin backbone or a compound having a 2-dimethyl chroman backbone” (Takara Bio, Inc., priority 2001, dated 2006).

Assays:
[1] = tested on: L-M cells (ATCC CCL-1.2) from murine fibroblasts; test: Enhancing activity for NGF production: NGF concentration in culture medium by enzyme immunoassay; format: cell-based; details: 20 hours culture
Description: (2) The enhancing activity for NGF production was determined for the fraction 10 derived from root portions of Angelica keiskei koidz., of which structure was identified in item (1) of Example 1. L-M cells (ATCC CCL-1.2) from murine fibroblasts were suspended in an M199 medium (manufactured by ICN) containing 0.5% bactopeptone (manufactured by Gibco) so as to have a concentration of 1.5×10^5 cells/ml. The suspension was put in a 96 well plate in an amount of 0.1 ml each well, and the cells were aseptically cultured. After culturing the cells for 3 days, the medium was removed therefrom, and exchanged with an M199 medium containing 0.5% bovine serum albumin (manufactured by Sigma). The fraction 10 derived from root portions of Angelica keiskei koidz. was added as the sample thereto, and the cells were cultured for 20 hours. After the termination of the culture, the concentration of the NGF in the culture medium was assayed by an enzyme immunoassay method (NGF Emax Immuno Assay System, manufactured by Promega). The NGF concentration when added was expressed, assuming that the NGF concentration in the cell culture medium with no addition of the sample is 100%, whereby the enhancing activity for NGF production of the sample was evaluated. The experiment was carried out twice, and an average value was taken. As a result, it was clarified that the fraction 10 derived from root portions of Angelica keiskei koidz., namely 3′-O-β-D-glucopyranoyl khellactone, has an enhancing activity for NGF production.

[2] = tested on: rat; test: Single-dose oral administration toxicity in rat; format: in vivo; details: orally administered, single dose at 1 g/kg of the body weight
Description: No toxicity is found when the above-mentioned effective ingredient usable in the present invention is administered in an amount effective for the exhibition of its action. […] Also, incidence of adverse actions is not found.

## C/C=C(/C)C(=O)OC1c2c(ccc3ccc(=O)oc23)OC(C)(C)C1O[C@@H]1O[C@H](CO[C@@H]2O[C@H](CO)[C@@H](O)[C@H](O)[C@H]2O)[C@@H](O)[C@H](O)[C@H]1O (stereo partly drawn) [Fraction 19/20-6, 4′-O-angeloyl-3′-O-[6-O-(β-D-glucopyranosyl)-β-D-glucopyranosyl]-khellactone]
[1]; Table 5, sample 1.00 mg/ml, no-sample control = 100% (0.063 ng/ml)
  Amount of NGF Produced: 337.7%
[2]
  cases of death: no cases of death

## CC1(C)Oc2ccc3ccc(=O)oc3c2C(O)C1OC1OC(CO)C(O)C(O)C1O [Fraction 10, 3′-O-β-D-glucopyranoyl khellactone]
[1]; Table 1, sample 2.00 mg/ml, no-sample control = 100% (0.382 ng/ml)
  Amount of NGF Produced: 565.5%

## COc1ccc(C(=O)C=Cc2ccc(O)cc2)c2c1CC(O)C(C)(C)O2 (stereo not drawn) [3-hydroxy-8-[3-(4-hydroxyphenyl)-acryloyl]-5-methoxy-2-dimethyl chroman]
[1]; Table 6, sample 200 μM, no-sample control = 100% (0.668 ng/ml)
  Amount of NGF Produced: 457.7%
[2]
  cases of death: no cases of death

## CC(C)=CCc1cc2ccc(=O)oc2cc1O[C@@H]1O[C@H](CO)[C@@H](O)[C@H](O)[C@H]1O [Fraction 19/20-5, 7-β-D-glucopyranosyloxy-6-prenyl coumarin]
[1]; Table 4, sample 1.00 mg/ml, no-sample control = 100% (0.063 ng/ml)
  Amount of NGF Produced: 487.9%

## COc1ccc(C(=O)O)c2c1CC(O)C(C)(C)O2 (stereo not drawn) [Fraction 18-4, 8-carboxyl-3-hydroxy-5-methoxy-2-dimethyl chroman]
[1]; Table 3, sample 0.0375 mg/ml, no-sample control = 100% (0.027 ng/ml)
  Amount of NGF Produced: 2510.4%
[2]
  cases of death: no cases of death

## CC(C)=CCc1c(OC2OC(CO)C(O)C(O)C2O)ccc2ccc(=O)oc12 [Fraction 13-2, 7-O-β-D-glucopyranosyloxy-8-prenyl coumarin]
[1]; Table 2, sample 1.00 mg/ml, no-sample control = 100% (0.053 ng/ml)
  Amount of NGF Produced: 792.1%
